What was measured:
[1] = system: viable tumor cells from the right chest wall lesion (mammary carcinoma cells); experiment: In vitro drug response of fresh tumor cells (DISC, MTT and redox assays); assay type: cell-based, human; set-up: key to ASSAY RESULT: Sensitive: A cancer cell is said to be sensitive to a drug when the drug inhibits the cell growth or proliferation of the cell to a greater degree than is expected for an appropriate control; Resistant: A cancer cell is said to be sensitive to a drug when the drug inhibits the cell growth or proliferation of the cell to a lesser degree than is expected for an appropriate control; settings: for ASSAY RESULT: compared with a database of assays with similar technical characteristics; for ASSAY PREDICTED RESPONSE PROBABILITY: predicted from the assay result; for activity in vitro (in words): summary of the table
Procedure: An unfixed portion of the tumor was further analyzed for response to several drugs. A specimen consisted of 1 piece of yellow, white, and red tissue, obtained from the right chest wall lesion. The piece was soft and sticky in texture, measured 0.8×1.4 cm, and weighed 0.47 gm. The specimen was minced to individual pieces smaller than one mm with surgical scissors and digested for 1.3 hours with collagenase-DNAse. Viable tumor cells were enriched by Ficoll-diatriozate centrifugation. Cytospin slides were prepared, air-dried, and stained with Fast Green/Hamatoxyline-eosin. On this cytology preparation obtained from mechanically-dissociated, enzyme-digested tissue, there was a collection of somewhat pleomorphic tumor cells, consistent with mammary carcinoma cells. Tumor cells were present as loose cell clusters (60% of total tumor cells) and, less commonly, as discohesive single cells (40% of total tumor cells). The tumor cells measured 22-25 microns in diameter and had N/N+C ratios of 0.6-0.8. […] Nucleoli were variably prominent. There were no cells with large clear globular areas or secretory material within the cytoplasm. There was slight cytoplasmic and nuclear molding. Approximately 40% of the enriched tumor cell fraction consisted of normal-appearing connective tissue cells and inflammatory cells.
Cells were plated for testing in 3 different assay endpoints. In the DISC assay, the entire contents of the cell culture were cytocentrifuged onto permanent microscope slides and differentially stained to allow discrimination of normal and neoplastic cells and living and dead cells. […] The MTT assay measures mitochondrial metabolism in the entire cell culture. The redox assay measures total metabolic activity in the entire cell culture, using the Alamar Blue reagent to index the oxygen reduction potential of the culture medium. Because of the very low yield of viable tumor cells, only a small drug panel could be tested. Additionally, some drugs could be tested only in a single assay system.
At the conclusion of the culture period, there was 10% spontaneous attrition in viable tumor cell numbers. Formazan signal in the MTT assay was moderate, reflective of moderate cell metabolism, and allowing for an MTT assay of good quality. Percentage of tumor cells as a percentage of total viable cells at the conclusion of the culture was approximately 85. DISC and MTT assays were in reasonably good agreement. The overall technical quality of the assays was good, marred only by the low yield of tumor cells, which severely limited the scope of testing.
Results were compared with a database of assays which had similar technical characteristics, as the technical characteristics of these assays influence the in vitro results, along with the intrinsic drug resistance of the tumor cells. By controlling for technical characteristics such as spontaneous cell loss, metabolic signal at the conclusion of the culture, and tumor cell clustering, biological correlations are improved.

[2] = system: patients with very advanced stage IV breast cancer; settings: components of the vaccine regimen, one patient each
Procedure: Breast cancer patients treated with a composition comprising AKCV-1 cells (administered in conjunction with GM-CSF) were evaluated. […] A small cohort of patients with very advanced stage 1V breast cancer were treated with a vaccine consisting of 10-20×10^6 viable, irradiated tumor cells (AKCV-1) admixed with an equal number of cryopreserved peripheral blood lymphocytes obtained by leukapheresis. Patients were pretreated with low-dose cyclophosphamide 300 mg/m^2 48-72 hrs prior to vaccine and received subcutaneous injections of GM-CSF just prior, and for 8 days after, vaccine inoculation.

Row | Compound | ASSAY RESULT [1] | ASSAY PREDICTED RESPONSE PROBABILITY [1] | activity in vitro (in words) [1] | Toxicity [2] | best drug in vitro ([1]; ranking among the drugs tested)
1 | N.N.O=C([O-])C1(C(=O)[O-])CCC1.[Pt+2] [(4HC) Carboplatin, Carboplatin] | Resistant | 5 | poor activity | – | –
2 | N.N.[Cl][Pt][Cl] [Cisplatin] | Intermediate | 30 | – | – | –
3 | O=P1(N(CCCl)CCCl)NCCCO1 (centres unmarked) [Cyclophosphamide] | Sensitive | 55 | above-average activity | exacerbation of pericardial effusion and atrial fibrillation, which spontaneously resolved | –
4 | COc1cccc2c1C(=O)c1c(O)c3c(c(O)c1C2=O)C[C@@](O)(C(=O)CO)C[C@@H]3O[C@H]1C[C@H](N)[C@H](O)[C@H](C)O1 [Doxorubicin] | Intermediate | 30 | – | – | –
5 | COc1cc([C@@H]2c3cc4c(cc3[C@@H](O[C@@H]3O[C@@H]5CO[C@@H](C)O[C@H]5[C@H](O)[C@H]3O)[C@H]3COC(=O)[C@H]23)OCO4)cc(OC)c1O [Etoposide] | Sensitive | 55 | above-average activity | – | –
6 | O=c1[nH]cc(F)c(=O)[nH]1 [Fluorouracil] | Intermediate | 20 | – | – | –
7 | CC(=O)O[C@H]1C(=O)[C@@]2(C)[C@H]([C@H](OC(=O)c3ccccc3)[C@]3(O)C[C@H](OC(=O)[C@H](O)[C@@H](NC(=O)c4ccccc4)c4ccccc4)C(C)=C1C3(C)C)[C@]1(OC(C)=O)CO[C@@H]1C[C@@H]2O [Taxol (Paclitaxel), Paclitaxel] | Sensitive | 62 | above-average activity | – | best drug in vitro
8 | CCC1=C[C@@H]2CN(C1)Cc1c([nH]c3ccccc13)[C@@](C(=O)OC)(c1cc3c(cc1OC)N(C)[C@H]1[C@@](O)(C(=O)OC)[C@H](OC(C)=O)[C@]4(CC)C=CCN5CC[C@]31[C@@H]54)C2 [Vinorelbine] | Intermediate | 30 | – | – | –
9 | GM-CSF: granulocyte macrophage colony stimulating factor, given as subcutaneous injections | – | – | – | increasing ascites and abdominal discomfort | –

Source: patent US20080181874A1, “CELL COMPOSITION AND METHOD FOR TREATING CANCER” (priority 2007, published 2008)
